# Literature values, collected in US20230233634A1, “PROCYANIDINS FOR THE TREATMENT OF ENDOTHELIAL DYSFUNCTION TRIGGERED BY COVID-19” (priority 2020, published 2023).
# System: iNOS (inducible nitric oxide synthase)
# Conditions: direct anti-inflammatory activity
structure (smiles),measurement,value
"O=C1CCC(Cc2ccc(O)c(O)c2)O1 (stereo not shown) [M1, δ-(3,4-dihydroxy-phenyl)-γ-valerolactone]",iNOS expression and nitrite production,reducing iNOS (inducible nitric oxide synthase) expression and excessive nitrite production
